Experimental findings from US20040204342A1, “Orthodontic remedies containing” (CHUGAI SEIYAKU KABUSHIKI KAISHA, priority 1996, published 2004) are described below.

Type in all cases: in vivo, rat
For test [1], the system named is male Wister rats. Kind of test: Histological findings of periodontium and alveolar bone in closed coil spring tooth movement. The conditions noted are these: continuous systemic infusion group. An excerpt: It has been already clarified that the continuous administration of PTH and the intermittent administration thereof differ from each other in their effect on bones. Thus, attempts were made to examine how PTH administered by either method would affect the experimental tooth movement. Use was made of 12 male Wister rats weighing 350 to 400 g. In the continuous PTH-administration group, an osmotic pump (2ML2, manufactured by Alzet, Palo Alto, Calif., USA) was subcutaneously implanted into the dorsal part of each rat followed by the continuous infusion of hPTH (1-34) (manufactured by Peptide Institute Inc., Mino) in a dose of 0.4 μg/100 g body weight/day or 4 μg/100 g body weight/day. As the control groups, use was made of 2 groups including (1) one to which the vehicle was continuously infused, and (2) an intermittent administration group to which 4 μg/100 g body weight/day of PTH was subcutaneously injected into the dorsal part once a day. From the next day of the initiation of the PTH-administration, an ultra-elastic closed coil spring (509-21, manufactured by Tomy International, K.K., Tokyo) was put between the upper incisive tooth and the right first molar M1 followed by the mesial traction of M1 for 12 days (FIG. 6-A, B). After the initiation of the shifting, the precise impression of the upper jaw was taken every 3 days by using a silicone impression material (Exafine, manufactured by GC, Tokyo) and the distance between the first molar and the second molar (M2) was measured on ultra-hard gypsum models (FIG. 6-C). After the completion of shifting over 12 days, arterial blood was collected from the abdominal aorta and various serum parameters were measured. After sacrificing each rat, the upper jaw and the right thickening bone were taken out. […] The bone mineral content and bone mineral density of the isolated the femur were measured by dual-x-ray absorptometry (DCS-600, manufactured by Aloka, Tokyo, Japan). […]

Test [2] relates to male Wister rats. Briefly: Experimental tooth movement by closed coil spring (mesial shift of M1), systemic continuous infusion or intermittent injection. The conditions noted are these: for mesial shift of M1 compared with control group: day 3. An excerpt: (§1) There are two methods for experimental tooth movement, i.e., one wherein an elastic band (made of rubber) is inserted between teeth and another one wherein a closed coil spring for orthodontics is used. The closed coil spring employed herein is Sentalloy closed coil spring 509-21 (made of Ni—Ti, manufactured by Tomy International K.K.) which can give an almost constant traction force of about 30 g within a spring-elongation range of 2 to 3 mm. […] When the initial elongation of the spring is regulated within the above-mentioned range, therefore, a constant force can be applied regardless of orthodontic tooth movement. When a rubber substance is inserted between molars, an extremely large force is applied immediately after the insertion but scarcely any force is applied after the target tooth is shifted by 0.5 mm. Accordingly, either the method with the insertion of an elastic (rubber) band or another one with the use of a closed coil spring may be used in experimental tooth movement within a short period of time. When a tooth is to be shifted over a long time, however, it is appropriate to use the latter method wherein the first molar is mesially shifted by elongating a closed coil spring. The method with the insertion of an elastic (rubber) band was employed in Example 1, while another method with the use of a closed coil spring was employed in Example 2.
It has been already clarified that the continuous administration of PTH and the intermittent administration thereof differ from each other in their effect on bones. Thus, attempts were made to examine how PTH administered by either method would affect the experimental tooth movement. Use was made of 12 male Wister rats weighing 350 to 400 g. In the continuous PTH-administration group, an osmotic pump (2ML2, manufactured by Alzet, Palo Alto, Calif., USA) was subcutaneously implanted into the dorsal part of each rat followed by the continuous infusion of hPTH (1-34) (manufactured by Peptide Institute Inc., Mino) in a dose of 0.4 μg/100 g body weight/day or 4 μg/100 g body weight/day. As the control groups, use was made of 2 groups including (1) one to which the vehicle was continuously infused, and (2) an intermittent administration group to which 4 μg/100 g body weight/day of PTH was subcutaneously injected into the dorsal part once a day. From the next day of the initiation of the PTH-administration, an ultra-elastic closed coil spring (509-21, manufactured by Tomy International, K.K., Tokyo) was put between the upper incisive tooth and the right first molar M1 followed by the mesial traction of M1 for 12 days (FIG. 6-A, B). After the initiation of the shifting, the precise impression of the upper jaw was taken every 3 days by using a silicone impression material (Exafine, manufactured by GC, Tokyo) and the distance between the first molar and the second molar (M2) was measured on ultra-hard gypsum models (FIG. 6-C). After the completion of shifting over 12 days, arterial blood was collected from the abdominal aorta and various serum parameters were measured. After sacrificing each rat, the upper jaw and the right thickening bone were taken out. The upper jaw was decalcificated and then cut into a paraffin section of 8 μm in thickness involving, in the direction of the major axis, the buccal mesial root and the buccal distal root followed by HE-staining and histological observation. The bone mineral content and bone mineral density of the isolated the femur were measured by dual-x-ray absorptometry (DCS-600, manufactured by Aloka, Tokyo, Japan).

Test [3] has as its system male Wister rats. Kind of test: Experimental tooth movement by closed coil spring (mesial shift of M1), local administration of sustained release dosage form. The conditions noted are these: 1 μg/400 g locally injected every 2 days (sustained release), FIG. 15.
Text: as §1, with “2. […]” for “2.”

Test [4] has as its system male Wister rats. Briefly: Experimental tooth movement by elastic band inserted between M1 and M2 (teeth separation), continuous PTH infusion.
Text: as §1
(§2) 18 rats were divided into 4 groups including a control group having 6 animals and 3 PTH-infusion groups each having 4 animals. PTH was dissolved in a citric acid-buffered saline containing 0.05% of Tween 80 and introduced into osmotic pumps. Then these pumps were implanted in the subcutus posterior region of the neck of the rats under ether anetheia. PTH was continuously infused into the rats in doses of 1, 3 and 10 μg/100 g body weight/day and the rats were fed with a standard pelletized feed (manufactured by Oriental Yeast Co., Ltd.). To the rats of the control group, vehicles were exclusively administered. 48 hours after implanting, a piece of an elastic band (0.8 mm in thickness) was inserted between the right upper first molar and second molar (between M1 and M2) of each rat under ether anetheia in accordance with the method of Wong-Rothblatt (1954) as shown in FIG. 1(A). On day 3 of the teeth separation, the rat was sacrificed by ether-inhalation. After cutting out the upper jaw, the distance between the adjacent faces of M1 and M2 was measured with the combined use of contact gauges (manufactured by Sun Dental, Osaka) of 50, 100 and 150 μm in thickness (FIGS. 1(B) and (C)). In the case of the control group, a contact gauge of 50 μm could be inserted between M1 and M2. Thus, the interdental distance was calculated by subtracting 50 μm from the measured distance of each animal. […] The upper jaw was fixed in 4% paraformaldehyde, decalcificated in 4% formic acid and then implanted in paraffin. […] Histological examinations were all performed in the pressured side of the M1 interradicular septa and osteoclasts in the area of 300×700 μm^2 in this region were counted (FIG. 1(C)). Osteoclasts were counted based on the fact that they were large multinuclear cells having been stained with eosin and located adjacent to the bone surface. The statistic differences between the control group and the test group was evaluated in accordance with Wilcoxon's rank-sum calibration method. […]

Test [5] concerns osteoclasts. Kind of test: Osteoclast count in the pressured side of the M1 interradicular septa during teeth separation. The conditions noted are these: for osteoclast count in the pressured side compared with control group: 10 μg/100 g body weight/day infusion, FIG. 5. On the procedure:
as §2

Test [6] deals with male Wister rats. Briefly: Histological change in pressured periodontia during teeth separation. Here is the method: 18 rats were divided into 4 groups including a control group having 6 animals and 3 PTH-infusion groups each having 4 animals. PTH was dissolved in a citric acid-buffered saline containing 0.05% of Tween 80 and introduced into osmotic pumps. Then these pumps were implanted in the subcutus posterior region of the neck of the rats under ether anetheia. PTH was continuously infused into the rats in doses of 1, 3 and 10 μg/100 g body weight/day and the rats were fed with a standard pelletized feed (manufactured by Oriental Yeast Co., Ltd.). To the rats of the control group, vehicles were exclusively administered. 48 hours after implanting, a piece of an elastic band (0.8 mm in thickness) was inserted between the right upper first molar and second molar (between M1 and M2) of each rat under ether anetheia in accordance with the method of Wong-Rothblatt (1954) as shown in FIG. 1(A). On day 3 of the teeth separation, the rat was sacrificed by ether-inhalation. After cutting out the upper jaw, the distance between the adjacent faces of M1 and M2 was measured with the combined use of contact gauges (manufactured by Sun Dental, Osaka) of 50, 100 and 150 μm in thickness (FIGS. 1(B) and (C)). In the case of the control group, a contact gauge of 50 μm could be inserted between M1 and M2. Thus, the interdental distance was calculated by subtracting 50 μm from the measured distance of each animal. […] The upper jaw was fixed in 4% paraformaldehyde, decalcificated in 4% formic acid and then implanted in paraffin. Subsequently, these preparations were cut into continuous mesiodistal sections of 8 μm in thickness and stained with hematoxylin and eosin. Histological examinations were all performed in the pressured side of the M1 interradicular septa and osteoclasts in the area of 300×700 μm^2 in this region were counted (FIG. 1(C)). Osteoclasts were counted based on the fact that they were large multinuclear cells having been stained with eosin and located adjacent to the bone surface. The statistic differences between the control group and the test group was evaluated in accordance with Wilcoxon's rank-sum calibration method. Each of the data was expressed in average±SEM. A P value less than 0.05 was regarded as being statistically significant.
32 rats were divided into 2 test groups each having 16 animals. […] To the rats of the control group, vehicles were exclusively administered. 2 days after implanting osmotic pumps, an elastic band was inserted between the right M1 and M2 of each rat. On days 0, 1, 3 and 5 of the teeth separation (i.e., on days 2, 3, 5 and 7 of the PTH infusion), the rats were sacrificed followed by the same procedures as those performed in Experiment 1.

Setting [7] is: 1 μg/100 g body weight/day and 3 μg/100 g body weight/day groups.

Turning to human PTH (1-34) [hPTH (1-34)], the “bone resorption in the mesial alveolar bone of M1 compared with control group” value in test [1] is given as “energetic bone resorption”. Moreover, the “bone resorption in the distal side of the alveolar septum” value in test [1] (FIG. 16-B) is given as “remarkable bone resorption was observed over a wide range”. In addition, the “necrotic tissue in the periodontal membrane, compared with control group” value in test [1] (FIG. 16-B) is listed as “no such necrotic tissue”. Besides, in test [2] (continuous PTH infusion group, after day 9, FIG. 10), the tooth shift-promoting effect entry is recorded as “observed more remarkably”. The “mesial shift of M1 compared with control group” value is “slightly significantly promoted” in test [2] (continuous PTH infusion group, FIG. 10) and “slightly significantly promoted” in test [2] (intermittent PTH injection group (4 μg/100 g body weight/day s.c. once a day), FIG. 10). Moreover, the “mesial shift of M1 relative to control group” value in test [2] (continuous infusion of 4 μg/100 g body weight/day, day 12) is listed as “twice”. In test [2] (continuous infusion of 4 μg/100 g body weight/day, day 12 of tooth movement), the “mesial shift of M1” value stood at 1.01±0.09 mm. Further, the “shift of M1, dose dependence” value in test [2] (continuous infusion of 0.4 or 4 μg/100 g body weight/day, day 12, FIG. 7) is recorded as “promoted depending on the dose”. Besides, the “M1 shifting distance compared with control group” value in test [2] (intermittent PTH injection group, after day 6, FIG. 10) is “no significant difference”. Also, the tooth movement-promoting effect entry in test [3] (after day 9) is listed as “more remarkable”. Further, the “mesial M1 shift” value in test [3] (since day 3) is “tendency that the mesial M1 shift was promoted”.

B1: human PTH (1-84) (protein, UniProt P01270 32-115, looked up)
Parathyroid hormone: SVSEIQLMHNLGKHLNSMERVEWLRKKLQDVHNFVALGAPLAPRDAGSQRPRKKEDNVLVESHEKSLGEADKADVNVLTKAKSQ
modifications: Parathyroid hormone
notes: recombinant human parathyroid hormone consisting of 84 amino acid residues
In the case of B1, the “distance between M1 and M2 compared with control group” value in test [4] (Experiment 1, 10 μg/100 g body weight/day continuous infusion, elastic band for 3 days, FIG. 2) is recorded as “significant increase”. For the same molecule, the “teeth separation distance compared with control group” value in test [4] (Experiment 2, 10 μg/100 g body weight/day infusion, day 1, FIG. 3) is recorded as “no significant difference”; in test [4] (Experiment 2, 10 μg/100 g body weight/day infusion, day 3, FIG. 3) it was “significant increase”. For the same molecule, the teeth separation result in test [4] (Experiment 2, 10 μg/100 g body weight/day infusion, day 5, FIG. 3) is given as “almost reached the limit”. Further, the “dose of PTH infusion achieving the maximum effect on teeth separation” value in test [4] (continuous infusion of 1, 3 and 10 μg/100 g body weight/day, day 3 of teeth separation, FIG. 2) amounted to 10 μg/100 g body weight/day. Moreover, the “osteoclast count in the pressured side compared with control group” value in test [5] (day 5) is given as “no significant difference”; in test [5] (from day 1), “significant increase”. The “osteoclast count in the pressured side of the periodontia, test groups and control group compared” value in test [5] (1, 3 and 10 μg/100 g body weight/day infusion (all 3 test groups), elastic band for 3 days, FIG. 4) is listed as “significant increase”. In addition, the “bone resorption compared with vehicle-treated rats” value in test [6] (setting [7]) is listed as “bone resorption seemingly arose over wider range”. The “necrotic tissue in the pressured periodontia” value in test [6] (setting [7]) is given as “necrotic tissue was also observed”; in test [6] (10 μg/100 g body weight/day, day 1 of teeth separation), “necrotic tissue was observed”; in test [6] (10 μg/100 g body weight/day, day 3 of teeth separation) it was “no necrosis”.
